This is an account of results in patent publication US11834414B2, “1-methyl-4-[(4-phenylphenyl)sulfonylmethyl]cyclohexyanol and 1-methyl-4-[[4-(2-pyridyl)phenyl]sulfonylmethyl]cyclohexanol compounds and their therapeutic use” (Modern Biosciences Limited, priority 2018, dated 2023).

pIC50: −log10 of the molar value.

One data set in a line: Rat hepatocyte stability. Type of data set: in vitro ADME. As to conditions: rat, pooled rat hepatocytes, 60 minute incubation; for hepatocyte CLint at 1 μM: read-out: Rat Clint (μL/min/million cells); for half-life at 1 μM: read-out: Rat t1/2. Summed up: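 Compounds (1 μM final, 0.1% DMSO, 0.9% acetonitrile) were incubated in duplicate with pooled rat or human hepatocytes at 37° C, sampled at 0–60 min and quenched with methanol. Remaining parent was measured by LC-MS/MS. Elimination rate constant came from the ln(concentration)–time slope, giving t1/2 and CLint scaled to hepatocyte concentration.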

A further data set concerns the target hERG ion channel (Homo sapiens (Human), UniProt Q12809). The experiment in a line: hERG Ion Channel Assay. Type of data set: cell-based. The conditions noted are these: for pIC50: hERG ion channel activity, hERG-CHO cells; for hERG cardiac safety profile (in words): compared to reference compounds such as ABD599 and ABD899. The protocol: When the ability of hERG to conduct electrical current across the cell membrane is inhibited or compromised, it can result in a potentially fatal disorder called long QT syndrome. This association between hERG and long QT syndrome has made hERG inhibition an important anti-target that must be avoided during drug development.
The activity of the compounds against the hERG ion channel was tested using two approaches: a binding assay and an automated patch-clamp, Q-patch method using stably transfected Chinese Hamster Ovary cells (hERG-CHO). hERG-CHO cells were cultured in F-12 Kaighn's Nutrient Mixture medium (Invitrogen)+10% FBS at 37° C. for 1-3 days. Cells were kept at 30° C. for 24 to 48 hours prior to patch clamping in order to increase the hERG current amplitude. Subsequently, the cells were harvested by trypsinisation, and kept in Serum Free Medium (SFM) in the Q-patch cell preparation state for up to 6 hours at room temperature before being washed and re-suspended in extracellular solution and applied to the patch clamp sites for data recording.
Patch-clamp voltage protocol: After whole cell configuration was achieved, the cell was held at −80 mV. A 50 millisecond pulse to −40 mV was delivered to measure the leaking current, which was subtracted from the tail current on-line. Then the cell was depolarized to +20 mV for 2 seconds, followed by a one second pulse to −40 mV to reveal hERG tail current. This paradigm was delivered once every 5 seconds to monitor the current amplitude.
Extracellular solution: 137 mM NaCl, 4 mM KCl, 1.8 mM CaCl2), 1 mM MgCl2, 10 mM D(+)-glucose, 10 mM HEPES buffer (pH adjusted to 7.4 with NaOH).
After the whole cell configuration was achieved, the extracellular solution (control) was applied first and the cell was stabilized for 2 minutes in extracellular solution. The test compound was then applied from low concentrations to high concentrations cumulatively. The cell was incubated with each test concentration for 5 minutes. During each incubation, the cell was repetitively stimulated using the voltage protocol described above, and the tail current amplitude was continuously monitored.
Acceptance Criteria: • (1) Peak tail current >100 pA in control. • (2) Initial run-down <30% and the run-down stops before first application of the test compound. • (3) Leak currents <50% of the control peak tail currents at any time. • (4) rs<20 MΩ throughout the experiment.
The degree of inhibition (%) was obtained by measuring the tail current amplitude, induced by a one second test pulse to −40 mV after a two second pulse to +20 mV, before and after incubation with the test compound. The difference in current was normalized to control and multiplied by 100 in order to obtain the percent inhibition.
Concentration (log) response curves were fitted to a logistic equation (three parameters assuming complete block of the current at very high test compound concentrations) to generate estimates of the 50% inhibitory concentration (IC50). The concentration-response relationship of each compound was constructed from the percentage reductions of current amplitude by sequential concentrations.
On the technique in general: Block of hERG is tested as a sign of cardiac risk.

In another data set the target is CYP2C19 (Homo sapiens (Human), UniProt P33261). The experiment in a line: Human Cytochrome P450 Inhibition Assay (Bactosomes). Type of data set: in vitro ADME. As to conditions: recombinant Bactosomes, 10 minutes, 37° C.
Sequence of CYP2C19 (P33261 whole entry): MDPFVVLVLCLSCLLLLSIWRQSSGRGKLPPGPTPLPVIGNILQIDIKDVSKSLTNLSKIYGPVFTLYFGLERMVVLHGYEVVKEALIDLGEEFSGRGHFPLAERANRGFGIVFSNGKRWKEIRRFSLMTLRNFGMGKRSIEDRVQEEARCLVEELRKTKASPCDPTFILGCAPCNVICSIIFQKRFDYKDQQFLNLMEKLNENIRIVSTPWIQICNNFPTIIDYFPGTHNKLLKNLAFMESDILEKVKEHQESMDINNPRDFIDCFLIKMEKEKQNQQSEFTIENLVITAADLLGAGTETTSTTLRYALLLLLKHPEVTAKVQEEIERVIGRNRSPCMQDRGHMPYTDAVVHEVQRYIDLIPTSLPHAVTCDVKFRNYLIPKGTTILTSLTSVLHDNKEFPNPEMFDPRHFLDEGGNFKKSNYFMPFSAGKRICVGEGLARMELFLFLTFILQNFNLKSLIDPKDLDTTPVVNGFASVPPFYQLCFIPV
The target of another data set is CYP2D6 (Homo sapiens (Human), UniProt P10635). Described as above. As to conditions: recombinant Bactosomes, 10 minutes, 37° C. Type of data set: in vitro ADME.
Sequence of CYP2D6 (P10635 whole entry): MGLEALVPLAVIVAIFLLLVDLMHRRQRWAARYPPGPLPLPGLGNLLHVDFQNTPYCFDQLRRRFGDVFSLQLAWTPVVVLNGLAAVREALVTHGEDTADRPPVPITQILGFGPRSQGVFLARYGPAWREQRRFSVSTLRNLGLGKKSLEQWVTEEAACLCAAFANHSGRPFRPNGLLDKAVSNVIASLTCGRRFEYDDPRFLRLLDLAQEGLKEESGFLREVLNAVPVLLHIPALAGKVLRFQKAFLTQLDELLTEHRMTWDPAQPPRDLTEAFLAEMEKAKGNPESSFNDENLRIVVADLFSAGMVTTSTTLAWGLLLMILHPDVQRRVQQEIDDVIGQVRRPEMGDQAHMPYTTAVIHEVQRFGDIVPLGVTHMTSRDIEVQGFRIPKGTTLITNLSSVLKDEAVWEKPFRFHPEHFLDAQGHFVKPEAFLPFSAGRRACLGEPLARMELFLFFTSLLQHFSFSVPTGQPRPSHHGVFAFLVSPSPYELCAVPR
Data set [1] relates to collagen-induced arthritis in DBA/1j mice. The experiment in a line: Mouse Collagen-Induced Arthritis. Type of data set: in vivo. As to conditions: 10 mg/kg/day, once daily for 14 days, arthritic index vs control. The protocol:
Seven- to eight-week-old male DBA/1j mice were used for all procedures. Animals were housed in groups of 10, and were maintained at 21° C.±2° C. on a 12-hour light/dark cycle with food and water ad libitum. Complete Freund's adjuvant (CFA) was prepared by emulsifying bovine type II collagen at 4 mg/mL with a 4 mg/mL suspension of Mycobacterium tuberculosis H37Ra in Incomplete Freund's Adjuvant (IFA) (0.85 mL paraffin oil and 0.15 mL mannide monooleate) in a 1:1 (v/v) ratio. All mice were immunised subcutaneously with 200 μg of bovine type II collagen in CFA. 21 days later, all mice were immunised subcutaneously with 100 μg of bovine type II collagen in IFA. The mice started to develop signs and symptoms of arthritis following the ‘booster’ immunisation.
For macroscopic assessment of arthritis, the following signs were monitored in each paw of each mouse three times per week and summed to generate the Arthritic Index (AI) (the maximum AI for one animal is 16): • 0=no visible effects of arthritis. • 1=oedema and/or erythema of 1 digit. • 2=oedema and/or erythema of 2 digits. • 3=oedema and/or erythema of more than 2 digits. • 4=severe arthritis of entire paw and digits.
Animals were sorted into treatment groups with a mean arthritic index of 2.5 and then dosed once daily for 14 days with compound: by oral gavage for test compounds, or by subcutaneous injection at a dose of 10 mg/kg for the positive control, etanercept. After completion of the experiment, the mice were sacrificed.
The data were analysed by generating an average of the arthritic index across each treatment group. The mean arthritic index was then compared to the arthritic index of control (untreated) animals using the following formula to generate a percentage inhibition of disease.

In data set [2] the test system is cytochrome P450 (CYP450) enzymes.

Sequence of hERG ion channel (Q12809 whole entry): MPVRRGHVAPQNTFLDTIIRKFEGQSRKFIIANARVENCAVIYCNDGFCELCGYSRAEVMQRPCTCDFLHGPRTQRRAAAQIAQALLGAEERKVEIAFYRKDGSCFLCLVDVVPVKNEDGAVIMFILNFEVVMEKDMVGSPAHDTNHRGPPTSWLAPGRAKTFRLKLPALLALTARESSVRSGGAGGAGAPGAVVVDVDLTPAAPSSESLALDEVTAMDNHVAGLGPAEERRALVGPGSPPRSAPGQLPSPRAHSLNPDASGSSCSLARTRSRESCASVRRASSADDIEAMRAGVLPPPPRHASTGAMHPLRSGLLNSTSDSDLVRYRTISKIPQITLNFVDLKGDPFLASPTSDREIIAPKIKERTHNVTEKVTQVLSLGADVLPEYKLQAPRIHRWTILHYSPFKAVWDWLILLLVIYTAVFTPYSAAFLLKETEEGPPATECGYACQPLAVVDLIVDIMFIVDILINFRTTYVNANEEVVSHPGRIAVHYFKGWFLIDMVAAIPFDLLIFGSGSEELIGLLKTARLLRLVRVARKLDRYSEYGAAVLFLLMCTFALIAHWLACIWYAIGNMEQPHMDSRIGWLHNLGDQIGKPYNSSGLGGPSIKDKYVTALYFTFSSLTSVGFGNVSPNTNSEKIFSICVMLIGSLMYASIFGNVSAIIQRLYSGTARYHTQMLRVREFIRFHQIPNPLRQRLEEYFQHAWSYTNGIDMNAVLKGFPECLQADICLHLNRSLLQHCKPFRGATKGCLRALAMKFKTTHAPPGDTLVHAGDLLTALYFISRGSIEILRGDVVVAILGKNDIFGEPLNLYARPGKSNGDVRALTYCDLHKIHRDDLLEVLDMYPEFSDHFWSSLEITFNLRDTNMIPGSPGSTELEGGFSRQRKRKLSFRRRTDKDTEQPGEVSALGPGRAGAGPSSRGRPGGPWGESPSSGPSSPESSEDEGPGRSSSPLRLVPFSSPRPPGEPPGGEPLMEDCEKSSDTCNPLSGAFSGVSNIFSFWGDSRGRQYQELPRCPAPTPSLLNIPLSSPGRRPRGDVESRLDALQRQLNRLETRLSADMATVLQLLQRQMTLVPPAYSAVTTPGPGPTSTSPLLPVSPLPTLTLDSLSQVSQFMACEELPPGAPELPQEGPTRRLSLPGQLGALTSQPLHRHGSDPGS

`C[C@]1(O)CC[C@@H](CS(=O)(=O)c2ccc(-c3ccc(C#N)cc3F)cc2)CC1` [CHMSA-01-A, 2-fluoro-4′-(((cis-4-hydroxy-4-methylcyclohexyl)methyl)sulfonyl)-[1,1′-biphenyl]-4-carbonitrile]: in the data set “Rat hepatocyte stability”, the hepatocyte CLint at 1 μM came to 12.4 µL/min/1e6 cells. The half-life at 1 μM in “Rat hepatocyte stability” is 106 min. Also, the pIC50 (in general, −log10 of the IC50, conventionally taken in molar units) at hERG ion channel is 4.62; on CYP2C19, under 4.30; on CYP2D6, under 4.30. In data set [1], the “% inhibition of disease” value is given as 63%. Also, in data set [2], the “drug-drug interaction liability, CYP450 inhibition profile (in words)” value is “particularly good profile”.

`C[C@]1(O)CC[C@@H](CS(=O)(=O)c2ccc(-c3ccc(C#N)cc3F)cc2C(F)(F)F)CC1` [CHMSA-02-A, 2-fluoro-4′-(((cis-4-hydroxy-4-methylcyclohexyl)methyl)sulfonyl)-3′-(trifluoromethyl)-[1,1′-biphenyl]-4-carbonitrile]: in the data set “Rat hepatocyte stability”, the hepatocyte CLint at 1 μM came out at 102 µL/min/1e6 cells and the half-life at 1 μM came out at 13 min. For the same molecule, at hERG ion channel, the “hERG cardiac safety profile (in words)” value is given as “particularly positive profile” and the pIC50 is under 4.00. For the same molecule, on CYP2C19, the pIC50 was under 4.30. For the same molecule, the pIC50 on CYP2D6 is under 4.30. Moreover, in data set [2], the “drug-drug interaction liability, CYP450 inhibition profile (in words)” value is reported as “particularly good profile”.

Regarding `C[C@]1(O)CC[C@@H](CS(=O)(=O)c2ccc(-c3ncc(F)cc3F)c(F)c2)CC1` [CHMSA-03-A, cis-4-(((4-(3,5-difluoropyridin-2-yl)-3-fluorophenyl)sulfonyl)methyl)-1-methylcyclohexan-1-ol], in “Rat hepatocyte stability”, the hepatocyte CLint at 1 μM amounted to 14.4 µL/min/1e6 cells and the half-life at 1 μM is 91.2 min. Besides, at hERG ion channel, the “hERG cardiac safety profile (in words)” value is given as “particularly positive profile” and the pIC50 was under 4.00. For the same molecule, the negative logarithm of the IC50 (pIC50) at CYP2C19 was under 4.30. The pIC50 at CYP2D6 was under 4.30. In data set [1], the “% inhibition of disease” value came to 62%. For the same molecule, the “drug-drug interaction liability, CYP450 inhibition profile (in words)” value in data set [2] is “particularly good profile”.

For `C[C@]1(O)CC[C@H](NS(=O)(=O)c2ccc(-c3ccc(Cl)cc3C#N)cc2)CC1` [HMC-C-01-A, reference compound], in the data set “Rat hepatocyte stability”, the hepatocyte CLint at 1 μM was found to be 188 µL/min/1e6 cells. Besides, the half-life at 1 μM in “Rat hepatocyte stability” was found to be 7 min. For the same molecule, the pIC50 was under 4.60 on CYP2C19 and 4.78 on CYP2D6. Besides, in data set [1], the “% inhibition of disease” value is 40%.
